Assay results from patent US11453683B1, “KRas G12D inhibitors” (Mirati Therapeutics, Inc., priority 2019, dated 2022).

Test system: KRas G12D-mediated phosphorylation of ERK
Experiment: Inhibition of KRas G12D-mediated phosphorylation of ERK in AGS cells
Assay type: cell-based
Settings: Homo sapiens; AGS cells expressing G12D, 3 hours, phospho-ERK normalized to GAPDH
Summary of the method: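 Fixed, methanol-permeabilized; phospho-ERK (Thr202/Tyr204) by in-cell immunofluorescence normalized to GAPDH. Percent of DMSO control, IC50 by 4-parameter fit.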

Row | Structure (SMILES) | IC50
1 | Fc1c(-c2cccc3cccc(Cl)c23)ncc2c(N3CC4CCC(C3)N4)nc(OC[C@@]34CCCN3C[C@H](F)C4)nc12 (stereo in doubt) [Example 134, 4-((1R,5S)-3,8-diazabicyclo[3.2.1]octan-3-yl)-7-(8-chloronaphthalen-1-yl)-8-fluoro-2-((2-fluorotetrahydro-1H-pyrrolizin-7a(5H)-yl)methoxy)pyrido[4,3-d]pyrimidine] | 0.895 µM
2 | C#Cc1cccc2cccc(-c3ncc4c(N5C[C@H]6CC[C@@H](C5)N6)nc(OCC56CCCN5CCC6)nc4c3F)c12 [Example 179, 4-((1R,5S)-3,8-diazabicyclo[3.2.1]octan-3-yl)-7-(8-ethynylnaphthalen-1-yl)-8-fluoro-2-((hexahydro-1H-pyrrolizin-7a-yl)methoxy)pyrido[4,3-d]pyrimidine] | 0.0712 µM
3 | Oc1ccc(OC(F)(F)F)c(-c2ncc3c(N4C[C@H]5CC[C@@H](C4)N5)nc(OCC45CCCN4CCC5)nc3c2F)c1 [Example 341, 3-(4-((1R,5S)-3,8-diazabicyclo[3.2.1]octan-3-yl)-8-fluoro-2-((tetrahydro-1H-pyrrolizin-7a(5H)-yl)methoxy)pyrido[4,3-d]pyrimidin-7-yl)-4-(trifluoromethoxy)phenol] | 0.837 µM
4 | CO[C@@H]1C[C@@H]2CN(c3nc(OC[C@@]45CCCN4C[C@H](F)C5)nc4c(F)c(-c5cccc6cccc(Cl)c56)ncc34)C[C@H]1N2 [Example 397, 7-(8-chloronaphthalen-1-yl)-8-fluoro-2-((2-fluorotetrahydro-1H-pyrrolizin-7a(5H)-yl)methoxy)-4-((1R,5R,6R)-6-methoxy-3,8-diazabicyclo[3.2.1]octan-3-yl)pyrido[4,3-d]pyrimidine] | > 16.7 µM
5 | Fc1cccc(-c2ncc3c(N4C[C@H]5CC[C@@H](C4)N5)nc(OCC45CCCN4CCC5)nc3c2F)c1C1CC1 [Example 304, 4-((1R,5S)-3,8-diazabicyclo[3.2.1]octan-3-yl)-7-(2-cyclopropyl-3-fluorophenyl)-8-fluoro-2-((hexahydro-1H-pyrrolizin-7a-yl)methoxy)pyrido[4,3-d]pyrimidine] | 1.42 µM
6 | Fc1c(-c2cccc(Cl)c2C2CC2)ncc2c(N3CC4CCC(C3)N4)nc(OCC34CCCN3C[C@H](F)C4)nc12 (mixture of isomers) [Example 342, 4-((1R,5S)-3,8-diazabicyclo[3.2.1]octan-3-yl)-7-(3-chloro-2-cyclopropylphenyl)-8-fluoro-2-((2-fluorotetrahydro-1H-pyrrolizin-7a(5H)-yl)methoxy)pyrido[4,3-d]pyrimidine] | 1 µM
7 | [O-][S+]1CCC(Oc2nc(N3C[C@H]4CC[C@@H](C3)N4)c3cnc(-c4cc(O)cc5ccccc45)c(F)c3n2)CC1 (stereo partly drawn) [Example 82, 4-((4-((1R,5S)-3,8-diazabicyclo[3.2.1]octan-3-yl)-8-fluoro-7-(3-hydroxynaphthalen-1-yl)pyrido[4,3-d]pyrimidin-2-yl)oxy)tetrahydro-2H-thiopyran 1-oxide] | > 16.7 µM
8 | CCc1cccc2cc(O)cc(-c3ncc4c(N5C[C@H]6CC[C@@H](C5)N6)nc(OC[C@]56CCCN5[C@@H](COC(=O)NC)CC6)nc4c3F)c12 [Example 433, ((3R,7aR)-7a-(((4-((1R,5S)-3,8-diazabicyclo[3.2.1]octan-3-yl)-7-(8-ethyl-3-hydroxynaphthalen-1-yl)-8-fluoropyrido[4,3-d]pyrimidin-2-yl)oxy)methyl)hexahydro-1H-pyrrolizin-3-yl)methyl methylcarbamate] | 0.0432 µM
9 | Fc1c(-c2cccc3cccc(F)c23)ncc2c(N3C[C@H]4CC[C@@H](C3)N4)nc(OCC34CCCN3CCC4)nc12 [Example 234, 4-((1R,5S)-3,8-diazabicyclo[3.2.1]octan-3-yl)-8-fluoro-7-(8-fluoronaphthalen-1-yl)-2-((tetrahydro-1H-pyrrolizin-7a(5H)-yl)methoxy)pyrido[4,3-d]pyrimidine] | 0.409 µM
10 | Oc1cc(-c2ncc3c(N4C[C@H]5CC[C@@H](C4)N5)nc(N4CC5(CCOCC5)C4)nc3c2F)c2ccccc2c1 [Example 74, 4-(4-((1R,5S)-3,8-diazabicyclo[3.2.1]octan-3-yl)-8-fluoro-2-(7-oxa-2-azaspiro[3.5]nonan-2-yl)pyrido[4,3-d]pyrimidin-7-yl)naphthalen-2-ol] | 5.47 µM
11 | CN1CCC[C@H]1COc1nc(N2CC3C[C@@H](O)C(C2)N3)c2cnc(-c3cc(O)cc4ccccc34)c(F)c2n1 (stereo partly drawn) [Example 31, 3-(8-fluoro-7-(3-hydroxynaphthalen-1-yl)-2-(((S)-1-methylpyrrolidin-2-yl)methoxy)pyrido[4,3-d]pyrimidin-4-yl)-3,8-diazabicyclo[3.2.1]octan-6-ol] | 2.43 µM
12 | OCCc1cccc2cccc(-c3ncc4c(N5C[C@H]6CC[C@@H](C5)N6)nc(OCC56CCCN5CCC6)nc4c3F)c12 [Example 239, 2-(8-(4-((1R,5S)-3,8-diazabicyclo[3.2.1]octan-3-yl)-8-fluoro-2-((tetrahydro-1H-pyrrolizin-7a(5H)-yl)methoxy)pyrido[4,3-d]pyrimidin-7-yl)naphthalen-1-yl)ethan-1-ol] | 2.95 µM
13 | Cn1cncc1CCOc1nc(N2C[C@H]3CC[C@@H](C2)N3)c2cnc(-c3cc(O)cc4ccccc34)c(F)c2n1 [Example 110, 4-(4-((1R,5S)-3,8-diazabicyclo[3.2.1]octan-3-yl)-8-fluoro-2-(2-(1-methyl-1H-imidazol-5-yl)ethoxy)pyrido[4,3-d]pyrimidin-7-yl)naphthalen-2-ol] | > 16.7 µM
14 | O=C(O[C@@H]1CN2CCC[C@]2(COc2nc(N3C[C@H]4CC[C@@H](C3)N4)c3cnc(-c4cccc5cccc(Cl)c45)c(F)c3n2)C1)N1CCOCC1 [Example 436, (2S,7aR)-7a-(((4-((1R,5S)-3,8-diazabicyclo[3.2.1]octan-3-yl)-7-(8-chloronaphthalen-1-yl)-8-fluoropyrido[4,3-d]pyrimidin-2-yl)oxy)methyl)hexahydro-1H-pyrrolizin-2-yl morpholine-4-carboxylate] | 3.99 µM
15 | Fc1c(-c2cccc(Cl)c2Cl)ncc2c(N3C[C@H]4CC[C@@H](C3)N4)nc(OCC34CCCN3CCC4)nc12 [Example 277, 4-((1R,5S)-3,8-diazabicyclo[3.2.1]octan-3-yl)-7-(2,3-dichlorophenyl)-8-fluoro-2-((hexahydro-1H-pyrrolizin-7a-yl)methoxy)pyrido[4,3-d]pyrimidine] | 3.68 µM
16 | C#Cc1cccc2cccc(-c3ncc4c(N5C[C@H]6CC[C@@H](C5)N6)nc(OC[C@]56CCCN5C[C@@H](F)C6)nc4c3F)c12 [Example 205, 4-((1R,5S)-3,8-diazabicyclo[3.2.1]octan-3-yl)-7-(8-ethynylnaphthalen-1-yl)-8-fluoro-2-(((2S,7aR)-2-fluorotetrahydro-1H-pyrrolizin-7a(5H)-yl)methoxy)pyrido[4,3-d]pyrimidine] | 0.242 µM
17 | Fc1c(-c2cccc3cccc(Br)c23)ncc2c(N3C[C@H]4CC[C@@H](C3)N4)nc(OCC34CCCN3CCC4)nc12 [Example 235, 4-((1R,5S)-3,8-diazabicyclo[3.2.1]octan-3-yl)-7-(8-bromonaphthalen-1-yl)-8-fluoro-2-((tetrahydro-1H-pyrrolizin-7a(5H)-yl)methoxy)pyrido[4,3-d]pyrimidine] | 0.339 µM
18 | Cc1cccc(-c2ncc3c(N4C[C@H]5CC[C@@H](C4)N5)nc(OCC45CCCN4CCC5)nc3c2F)c1C [Example 275, 4-((1R,5S)-3,8-diazabicyclo[3.2.1]octan-3-yl)-7-(2,3-dimethylphenyl)-8-fluoro-2-((hexahydro-1H-pyrrolizin-7a-yl)methoxy)pyrido[4,3-d]pyrimidine] | 7.06 µM
19 | CN1CCC[C@H]1COc1nc(N2C[C@H]3CC[C@@H](C2)N3)c2cnc(-c3cccc4c3C(C)(C)CC4)c(F)c2n1 [Example 161, 4-((1R,5S)-3,8-diazabicyclo[3.2.1]octan-3-yl)-7-(3,3-dimethyl-2,3-dihydro-1H-inden-4-yl)-8-fluoro-2-(((S)-1-methylpyrrolidin-2-yl)methoxy)pyrido[4,3-d]pyrimidine bis(2,2,2-trifluoroacetate)] | > 16.7 µM
20 | CCc1c(F)ccc2cc(O)cc(-c3ncc4c(N5C[C@H]6CC[C@@H](C5)N6)nc(OC[C@]56CCCN5[C@@H](COC(=O)N(C)C)CC6)nc4c3F)c12 [Example 441, ((3R,7aR)-7a-(((4-((1R,5S)-3,8-diazabicyclo[3.2.1]octan-3-yl)-7-(8-ethyl-7-fluoro-3-hydroxynaphthalen-1-yl)-8-fluoropyrido[4,3-d]pyrimidin-2-yl)oxy)methyl)hexahydro-1H-pyrrolizin-3-yl)methyl dimethylcarbamate] | 0.0041 µM
21 | Cc1cc2[nH]ncc2c(-c2ncc3c(N4C[C@H]5CC[C@@H](C4)N5)nc(OCC45CCCN4CCC5)nc3c2F)c1C [Example 249, 4-((1R,5S)-3,8-diazabicyclo[3.2.1]octan-3-yl)-7-(5,6-dimethyl-1H-indazol-4-yl)-8-fluoro-2-((hexahydro-1H-pyrrolizin-7a-yl)methoxy)pyrido[4,3-d]pyrimidine] | 7.71 µM
22 | Cc1ccc2[nH]ncc2c1-c1ncc2c(N3CC4CCC(C3)N4)nc(OCC34CCCN3C[C@H](F)C4)nc2c1F (mixture of isomers) [Example 331, 4-((1R,5S)-3,8-diazabicyclo[3.2.1]octan-3-yl)-8-fluoro-2-((2-fluorotetrahydro-1H-pyrrolizin-7a(5H)-yl)methoxy)-7-(5-methyl-1H-indazol-4-yl)pyrido[4,3-d]pyrimidine] | 10.8 µM
23 | Fc1ccc2cccc(-c3ncc4c(N5CC6CCC(C5)N6)nc(OC[C@@]56CCCN5C[C@H](F)C6)nc4c3F)c2c1Cl (racemic) [Example 336, 4-((1R,5S)-3,8-diazabicyclo[3.2.1]octan-3-yl)-7-(8-chloro-7-fluoronaphthalen-1-yl)-8-fluoro-2-((2-fluorotetrahydro-1H-pyrrolizin-7a(5H)-yl)methoxy)pyrido[4,3-d]pyrimidine] | 1.06 µM
24 | Fc1c(-c2cccc3c2CCC3)ncc2c(N3CC4CCC(C3)N4)nc(OC[C@@]34CCCN3C[C@H](F)C4)nc12 [Example 428] | 6.96 µM
